Test results reported in ChEMBL document CHEMBL5674860, “Optimized Dual-Glo Assay to identify co-culture-induced drug vulnerabilities in 3D CRC models” (2024).

Assays:
Assay type in all cases: functional, Homo sapiens
Set-up in all cases: dose or concentration left out as unconfirmed
Colon cancer organoid [1] = test: Optimized Dual-Glo assay to identify co-culture induced drug vulnerabilities using donated chemical probes and chemogenomics kinase set in O20 CRC organoid and F20 CAF mono and co-culture. […] Cell viability is reported both mono and co-culture models.
Colon cancer organoid [2] = test: Optimized Dual-Glo assay to identify co-culture induced drug vulnerabilities using donated chemical probes and chemogenomics kinase set in O14 CRC organoid and F14 CAF mono and co-culture. […] Cell viability is reported both mono and co-culture models.
Colon cancer organoid [3] = test: Optimized Dual-Glo assay to identify co-culture induced drug vulnerabilities using donated chemical probes and chemogenomics kinase set in O06 CRC organoid and F06 CAF mono and co-culture. […] Cell viability is reported both mono and co-culture models.
[4] = Culture type Co-Culture, Transduced with Lucferase2-P2A-EGFP lentivirus
[5] = Culture type Co-Culture, Transduced with Renilla-dsRed lentivirus
[6] = Culture type Mono-Culture, Transduced with Lucferase2-P2A-EGFP lentivirus
[7] = Culture type Mono-Culture, Transduced with Renilla-dsRed lentivirus

Compound | Cell Viability (Colon cancer organoid [1]; [4]) | Cell Viability (Colon cancer organoid [1]; [5]) | Cell Viability (Colon cancer organoid [1]; [6]) | Cell Viability (Colon cancer organoid [1]; [7]) | Cell Viability (Colon cancer organoid [2]; [4]) | Cell Viability (Colon cancer organoid [2]; [5]) | Cell Viability (Colon cancer organoid [2]; [6]) | Cell Viability (Colon cancer organoid [2]; [7]) | Cell Viability (Colon cancer organoid [3]; [4]) | Cell Viability (Colon cancer organoid [3]; [5]) | Cell Viability (Colon cancer organoid [3]; [6]) | Cell Viability (Colon cancer organoid [3]; [7])
Cl.Cl.Cl.c1ccc(N2CCN(Cc3nc4ccccc4[nH]3)CC2)nc1 | 41.4322% | 124.541% | 78.9868% | 88.4978% | 78.8417% | 120.535% | 87.6489% | 99.3304% | 145.739% | 162.508% | 117.947% | 106.828%
COc1cc(C(=O)O)ncc1C#Cc1ccccc1NS(=O)(=O)c1cccc2c(N(C)C)ccnc12 [MSC-0516] | 89.6649% | 109.372% | 112.972% | 85.9962% | 94.2911% | 93.5429% | 114.942% | 88.0348% | 46.2412% | 64.6541% | 39.7973% | 95.1501%
CN1CCN(c2ccc(OC(F)(F)F)c(Nc3ncc4c(n3)-c3c(c(C(N)=O)nn3CCO)CC4)c2)CC1 [ONVANSERTIB] | 2% | 184.086% | 2.415% | 100.341% | 3.512% | 162.986% | 6.811% | 81.4434% | 2.834% | 160.245% | 4.275% | 93.5315%
CCCCN(Cc1ccccc1)C(=O)c1ccc(S(=O)(=O)Nc2ccccc2)cc1 | 74.981% | 116.955% | 117.076% | 107.638% | 108.863% | 102.946% | 107.066% | 103.133% | 64.4698% | 76.2121% | 99.0346% | 112.912%
CCOc1cc(N2CCC(O)CC2)ccc1Nc1ncc2c(n1)N(C)c1ccccc1C(=O)N2C | 81.7751% | 117.331% | 65.2469% | 115.42% | 76.0009% | 186.577% | 84.1713% | 122.992% | 85.6087% | 128.987% | 73.5863% | 165.88%
O=C(O)CNC(=O)c1c(O)c2ccccc2n(Cc2ccccc2)c1=O | 96.4355% | 149.859% | 78.6397% | 102.057% | 94.5212% | 101.447% | 96.8462% | 89.4149% | 145.736% | 124.036% | 103.118% | 94.3602%
COc1cc2c(cc1OCCCN1CCCC1)N=C(N)C21CCC1 | 75.7779% | 100.254% | 68.8586% | 68.8682% | 71.4641% | 82.9559% | 58.4791% | 57.8128% | 84.9948% | 83.704% | 86.6673% | 61.562%
O=C(O)c1ccc2c(c1)nc(Nc1cccc(Cl)c1)c1ccncc12 [SILMITASERTIB] | 158.738% | 81.7658% | 95.6239% | 79.8512% | 93.7278% | 109.514% | 89.7197% | 119.06% | 108.166% | 80.6873% | 78.7074% | 100.788%
CN(C)C(=O)c1cc2cnc(Nc3ccc(N4CCNCC4)cn3)nc2n1C1CCCC1 [RIBOCICLIB] | 36.9577% | 144.514% | 20.5669% | 95.5583% | 59.6816% | 144.098% | 62.61% | 96.4403% | 54.2961% | 126.231% | 30.4641% | 111.56%
